Data: paper PMC6437697 (Journal of Medicinal Chemistry, 2019)

Columns and labels:
Assay in all cases: KINOMEscan
Assay type in all cases: binding
Details in all cases: read-out: % control activity remaining
[1] = biological target: T1, ABL1(F317I)-phosphorylated (Homo sapiens, UniProt P00519, F317I)
T1 construct: purchased Eurofins DiscoverX KINOMEscan

[2] = biological target: T2, ABL1(H396P)-phosphorylated (Homo sapiens, UniProt P00519, H396P)
T2 construct: purchased Eurofins DiscoverX KINOMEscan

[3] = biological target: T3, BIKE (Homo sapiens, UniProt Q9NSY1)
T3 construct: purchased Eurofins DiscoverX KINOMEscan
T3 sequence (Q9NSY1 whole entry): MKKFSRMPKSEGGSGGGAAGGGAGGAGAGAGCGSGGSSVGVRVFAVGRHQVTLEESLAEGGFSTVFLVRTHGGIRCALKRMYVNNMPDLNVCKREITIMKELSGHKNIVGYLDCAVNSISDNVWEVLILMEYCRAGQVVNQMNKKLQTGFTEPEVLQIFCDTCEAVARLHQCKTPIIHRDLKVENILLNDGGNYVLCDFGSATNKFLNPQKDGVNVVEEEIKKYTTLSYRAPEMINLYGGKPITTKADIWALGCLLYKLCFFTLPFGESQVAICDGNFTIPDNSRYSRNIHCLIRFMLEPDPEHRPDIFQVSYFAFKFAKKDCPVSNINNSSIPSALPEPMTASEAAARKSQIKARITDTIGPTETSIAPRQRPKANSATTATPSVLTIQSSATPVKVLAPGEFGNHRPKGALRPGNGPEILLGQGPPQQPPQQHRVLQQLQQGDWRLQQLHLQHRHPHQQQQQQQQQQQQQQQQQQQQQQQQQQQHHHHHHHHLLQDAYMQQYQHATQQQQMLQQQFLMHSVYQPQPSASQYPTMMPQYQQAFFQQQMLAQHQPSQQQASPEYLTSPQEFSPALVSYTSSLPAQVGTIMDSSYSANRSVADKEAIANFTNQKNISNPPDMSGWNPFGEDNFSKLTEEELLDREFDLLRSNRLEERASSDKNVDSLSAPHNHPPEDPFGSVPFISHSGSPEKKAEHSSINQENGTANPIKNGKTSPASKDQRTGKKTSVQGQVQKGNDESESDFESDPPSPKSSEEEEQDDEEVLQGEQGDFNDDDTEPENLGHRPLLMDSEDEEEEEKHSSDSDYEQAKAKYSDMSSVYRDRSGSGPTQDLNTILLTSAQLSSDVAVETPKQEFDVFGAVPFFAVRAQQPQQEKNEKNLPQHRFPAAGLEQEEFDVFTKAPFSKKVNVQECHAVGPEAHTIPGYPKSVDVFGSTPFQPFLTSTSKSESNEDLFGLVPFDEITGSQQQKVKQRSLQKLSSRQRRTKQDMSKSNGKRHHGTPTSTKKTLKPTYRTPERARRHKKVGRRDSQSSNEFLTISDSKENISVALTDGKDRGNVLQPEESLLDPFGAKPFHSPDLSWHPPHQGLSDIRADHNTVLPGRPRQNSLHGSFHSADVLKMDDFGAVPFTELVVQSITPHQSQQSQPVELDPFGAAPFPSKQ

[4] = biological target: T4, CAMK1G (Homo sapiens, UniProt Q96NX5)
T4 construct: purchased Eurofins DiscoverX KINOMEscan
T4 sequence (Q96NX5 whole entry): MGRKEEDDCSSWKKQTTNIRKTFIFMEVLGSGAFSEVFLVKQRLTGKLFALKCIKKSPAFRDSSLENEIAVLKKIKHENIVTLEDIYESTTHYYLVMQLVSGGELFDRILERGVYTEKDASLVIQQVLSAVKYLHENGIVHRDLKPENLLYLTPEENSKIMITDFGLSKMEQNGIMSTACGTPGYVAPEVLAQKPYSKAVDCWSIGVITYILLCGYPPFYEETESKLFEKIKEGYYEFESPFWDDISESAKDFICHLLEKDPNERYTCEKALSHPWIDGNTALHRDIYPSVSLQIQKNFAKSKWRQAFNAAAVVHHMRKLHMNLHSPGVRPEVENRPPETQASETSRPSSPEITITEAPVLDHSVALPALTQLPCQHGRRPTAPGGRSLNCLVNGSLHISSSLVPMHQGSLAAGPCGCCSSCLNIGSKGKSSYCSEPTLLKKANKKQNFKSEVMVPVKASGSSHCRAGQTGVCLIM

[5] = biological target: T5, DDR2 (Homo sapiens, UniProt Q16832)
T5 construct: purchased Eurofins DiscoverX KINOMEscan
T5 sequence (Q16832 22-855): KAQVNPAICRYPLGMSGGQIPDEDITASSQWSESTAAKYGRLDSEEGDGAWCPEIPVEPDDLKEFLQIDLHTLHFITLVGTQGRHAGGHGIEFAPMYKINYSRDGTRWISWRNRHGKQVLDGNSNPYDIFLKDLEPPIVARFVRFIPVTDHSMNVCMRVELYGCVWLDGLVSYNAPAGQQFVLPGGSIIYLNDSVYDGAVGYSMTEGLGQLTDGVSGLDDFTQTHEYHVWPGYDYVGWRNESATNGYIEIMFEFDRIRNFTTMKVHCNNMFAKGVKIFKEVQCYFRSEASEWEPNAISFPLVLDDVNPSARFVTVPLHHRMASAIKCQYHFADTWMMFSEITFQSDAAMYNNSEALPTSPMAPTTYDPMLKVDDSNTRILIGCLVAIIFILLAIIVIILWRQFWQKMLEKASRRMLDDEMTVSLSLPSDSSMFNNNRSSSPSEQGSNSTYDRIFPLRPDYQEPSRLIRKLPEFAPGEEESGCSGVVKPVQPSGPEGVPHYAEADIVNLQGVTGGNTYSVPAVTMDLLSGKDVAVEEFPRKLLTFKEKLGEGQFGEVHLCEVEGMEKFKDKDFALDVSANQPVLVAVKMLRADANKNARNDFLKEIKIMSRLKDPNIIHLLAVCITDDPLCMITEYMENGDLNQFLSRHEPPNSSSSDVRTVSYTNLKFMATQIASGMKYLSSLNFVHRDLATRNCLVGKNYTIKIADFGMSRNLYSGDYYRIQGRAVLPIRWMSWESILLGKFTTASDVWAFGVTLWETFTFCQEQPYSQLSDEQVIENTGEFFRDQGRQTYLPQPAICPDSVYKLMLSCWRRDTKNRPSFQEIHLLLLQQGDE

[6] = biological target: T6, ERN1 (Homo sapiens, UniProt O75460)
T6 construct: purchased Eurofins DiscoverX KINOMEscan
T6 sequence (O75460 19-977): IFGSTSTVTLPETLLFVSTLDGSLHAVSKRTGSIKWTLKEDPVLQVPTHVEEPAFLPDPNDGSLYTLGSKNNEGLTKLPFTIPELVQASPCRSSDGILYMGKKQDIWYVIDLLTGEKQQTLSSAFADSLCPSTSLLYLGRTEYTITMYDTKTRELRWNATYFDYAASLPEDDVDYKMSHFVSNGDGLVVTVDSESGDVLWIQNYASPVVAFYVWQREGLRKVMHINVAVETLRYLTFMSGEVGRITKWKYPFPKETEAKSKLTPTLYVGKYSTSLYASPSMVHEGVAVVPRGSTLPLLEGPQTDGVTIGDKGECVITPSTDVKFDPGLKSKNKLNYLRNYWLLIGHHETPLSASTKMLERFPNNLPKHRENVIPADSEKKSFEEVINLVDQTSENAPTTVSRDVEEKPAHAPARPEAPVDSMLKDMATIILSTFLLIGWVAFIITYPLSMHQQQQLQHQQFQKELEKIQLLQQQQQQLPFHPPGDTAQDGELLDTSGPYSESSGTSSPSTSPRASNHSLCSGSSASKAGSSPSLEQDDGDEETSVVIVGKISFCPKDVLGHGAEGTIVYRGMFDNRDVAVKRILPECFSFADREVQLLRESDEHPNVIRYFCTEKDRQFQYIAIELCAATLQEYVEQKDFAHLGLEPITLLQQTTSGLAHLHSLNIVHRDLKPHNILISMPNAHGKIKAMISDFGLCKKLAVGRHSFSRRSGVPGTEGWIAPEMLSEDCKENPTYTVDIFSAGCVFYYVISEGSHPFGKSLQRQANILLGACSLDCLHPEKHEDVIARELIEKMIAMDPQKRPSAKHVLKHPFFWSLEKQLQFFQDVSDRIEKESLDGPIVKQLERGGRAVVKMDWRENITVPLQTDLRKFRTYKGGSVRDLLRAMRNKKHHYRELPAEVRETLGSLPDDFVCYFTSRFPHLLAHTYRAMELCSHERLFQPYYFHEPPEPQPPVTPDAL

[7] = biological target: T7, MAP4K3 (Homo sapiens, UniProt Q8IVH8)
T7 construct: purchased Eurofins DiscoverX KINOMEscan
T7 sequence (Q8IVH8 1-894): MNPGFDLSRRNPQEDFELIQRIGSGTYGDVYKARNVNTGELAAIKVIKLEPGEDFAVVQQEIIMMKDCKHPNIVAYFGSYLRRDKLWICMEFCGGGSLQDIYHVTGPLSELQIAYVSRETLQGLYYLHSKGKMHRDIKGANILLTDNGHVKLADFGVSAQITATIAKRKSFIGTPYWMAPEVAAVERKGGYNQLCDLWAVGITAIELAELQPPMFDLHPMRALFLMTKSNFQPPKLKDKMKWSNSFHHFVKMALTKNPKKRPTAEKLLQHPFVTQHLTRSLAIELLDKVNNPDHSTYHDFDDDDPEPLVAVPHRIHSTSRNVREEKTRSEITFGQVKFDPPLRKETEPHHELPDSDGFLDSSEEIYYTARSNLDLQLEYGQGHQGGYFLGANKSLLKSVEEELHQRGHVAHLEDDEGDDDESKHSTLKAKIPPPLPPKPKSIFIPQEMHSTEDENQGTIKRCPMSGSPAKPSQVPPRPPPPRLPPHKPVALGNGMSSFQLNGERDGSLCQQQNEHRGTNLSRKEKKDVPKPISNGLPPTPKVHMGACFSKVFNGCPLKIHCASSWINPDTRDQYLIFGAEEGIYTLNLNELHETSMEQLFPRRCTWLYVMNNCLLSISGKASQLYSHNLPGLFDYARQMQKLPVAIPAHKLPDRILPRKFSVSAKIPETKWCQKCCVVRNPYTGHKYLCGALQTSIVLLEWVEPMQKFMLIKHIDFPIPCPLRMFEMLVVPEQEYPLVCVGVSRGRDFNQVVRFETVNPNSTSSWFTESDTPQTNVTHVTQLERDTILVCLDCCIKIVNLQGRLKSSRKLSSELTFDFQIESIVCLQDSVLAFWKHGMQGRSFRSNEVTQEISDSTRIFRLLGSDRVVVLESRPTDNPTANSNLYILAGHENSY

[8] = biological target: T8, MLK2 (Homo sapiens, UniProt Q02779)
T8 construct: purchased Eurofins DiscoverX KINOMEscan
T8 sequence (Q02779 whole entry): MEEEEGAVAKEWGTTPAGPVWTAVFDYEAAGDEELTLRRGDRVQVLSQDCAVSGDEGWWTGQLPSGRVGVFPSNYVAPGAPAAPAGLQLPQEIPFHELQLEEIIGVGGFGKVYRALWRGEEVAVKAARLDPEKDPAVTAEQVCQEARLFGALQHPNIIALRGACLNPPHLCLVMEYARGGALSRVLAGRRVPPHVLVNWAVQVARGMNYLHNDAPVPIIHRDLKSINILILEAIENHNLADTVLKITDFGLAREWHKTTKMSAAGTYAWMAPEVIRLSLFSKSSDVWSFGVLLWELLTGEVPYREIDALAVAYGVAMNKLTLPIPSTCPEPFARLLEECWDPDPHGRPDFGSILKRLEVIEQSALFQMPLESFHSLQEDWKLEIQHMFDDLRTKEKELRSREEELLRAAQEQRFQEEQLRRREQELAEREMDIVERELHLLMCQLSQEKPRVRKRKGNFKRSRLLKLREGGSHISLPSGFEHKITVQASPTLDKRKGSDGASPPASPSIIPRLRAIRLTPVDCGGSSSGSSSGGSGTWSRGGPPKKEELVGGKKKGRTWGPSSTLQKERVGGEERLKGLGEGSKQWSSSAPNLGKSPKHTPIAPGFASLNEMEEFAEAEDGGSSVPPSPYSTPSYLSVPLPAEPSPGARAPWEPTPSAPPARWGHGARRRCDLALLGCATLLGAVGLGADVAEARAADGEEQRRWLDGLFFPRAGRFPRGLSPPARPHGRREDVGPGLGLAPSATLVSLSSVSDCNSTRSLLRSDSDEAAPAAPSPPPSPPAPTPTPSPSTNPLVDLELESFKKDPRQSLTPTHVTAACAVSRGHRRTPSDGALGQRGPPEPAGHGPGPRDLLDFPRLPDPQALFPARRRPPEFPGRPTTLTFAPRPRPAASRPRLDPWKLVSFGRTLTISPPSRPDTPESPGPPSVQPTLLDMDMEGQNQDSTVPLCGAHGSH

[9] = biological target: T9, RIPK1 (Homo sapiens, UniProt Q13546)
T9 construct: purchased Eurofins DiscoverX KINOMEscan
T9 sequence (Q13546 1-671): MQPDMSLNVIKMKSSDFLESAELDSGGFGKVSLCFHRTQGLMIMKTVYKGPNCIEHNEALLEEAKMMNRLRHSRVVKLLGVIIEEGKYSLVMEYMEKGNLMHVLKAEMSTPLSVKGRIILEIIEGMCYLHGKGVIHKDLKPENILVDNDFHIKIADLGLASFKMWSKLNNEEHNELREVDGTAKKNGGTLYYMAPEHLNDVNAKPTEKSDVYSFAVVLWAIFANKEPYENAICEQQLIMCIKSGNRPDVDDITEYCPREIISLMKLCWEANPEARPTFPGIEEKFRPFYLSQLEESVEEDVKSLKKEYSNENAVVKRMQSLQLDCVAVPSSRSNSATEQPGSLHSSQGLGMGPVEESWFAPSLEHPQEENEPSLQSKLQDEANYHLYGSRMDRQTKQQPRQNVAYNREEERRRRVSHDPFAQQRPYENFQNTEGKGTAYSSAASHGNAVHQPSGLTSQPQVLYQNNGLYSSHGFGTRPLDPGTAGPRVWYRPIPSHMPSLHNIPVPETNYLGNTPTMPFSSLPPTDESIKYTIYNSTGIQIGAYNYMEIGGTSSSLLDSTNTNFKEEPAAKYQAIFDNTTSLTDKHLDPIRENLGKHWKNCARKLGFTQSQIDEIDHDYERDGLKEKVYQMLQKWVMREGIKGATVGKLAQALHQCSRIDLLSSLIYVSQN

SMILES | remaining binding at 1 µM [1] [%] | remaining binding at 1 µM [2] [%] | remaining binding at 1 µM [3] [%] | remaining binding at 1 µM [4] [%] | remaining binding at 1 µM [5] [%] | remaining binding at 1 µM [6] [%] | remaining binding at 1 µM [7] [%] | remaining binding at 1 µM [8] [%] | remaining binding at 1 µM [9] [%]
Clc1cc(NCC2CC2)c2ncc(-c3ccc4[nH]ncc4c3)n2n1 [compound 2, 6-Chloro-N-(cyclopropylmethyl)-3-(1H-indazol-5-yl)imidazo[1,2-b]pyridazin-8-amine] | 93 | 73 | 34 | 76 | 86 | 69 | 71 | 100 | 91
O=C(CN1CCOCC1)N[C@H]1CC[C@H](Nc2cc(Cl)nn3c(-c4ccc5[nH]ncc5c4)cnc23)CC1 [compound 26] | 8.1 | 46 | 13 | 51 | 98 | 41 | 92 | 92 | 74
CN1CCC(CNc2cc(Cl)nn3c(-c4cc5nc(Nc6ccccc6)[nH]c5cc4F)cnc23)CC1 [compound 31, 6-Chloro-3-(6-fluoro-2-(phenylamino)-1H-benzo[d]imidazol-5-yl)-N-((1-methylpiperidin-4-yl)methyl)imidazo[1,2-b]pyridazin-8-amine] | 76 | 67 | 91 | 100 | 100 | 33 | 99 | 88 | 94
